Experimental findings from patent publication US20220396565A1 (Hoffmann-La Roche Inc., priority 2020, published 2022) are described below.

Where a name gives a salt, the structure may show the parent alone.

The first assay relates to Acinetobacter baumannii ATCC17961. Nature of the assay: Antimicrobial susceptibility testing: 90% growth inhibitory concentration (IC90) determination, Iso-Sensitest broth. The assay is classed as cell-based. The settings on record: 90% growth inhibitory concentration, Acinetobacter baumannii ATCC17961, Iso-Sensitest broth; read-out: ATCC 17961 IC90. The procedure, abridged: (§1)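 Twofold serial dilutions (e.g. 10 to 0.02 μM final) were tested in Iso-Sensitest broth against ~5×10^(5) CFU/ml at 35±2 °C. OD600 was read every 20 min over 16 h. IC90 was derived from growth inhibition during the logarithmic phase.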
As for “N-(azetidin-3- ylmethyl)-1-[2-chloro- 4-[[5-[4- (cyanomethoxy)-2,3- difluoro-phenyl]-1- methyl-imidazole-2- carbonyl]amino]benzoyl] piperidine-4- carboxamide trifluoroacetate [Example 264]”, the IC90 was found to be 90 nM.

Staying with this assay, now noted: Acinetobacter baumannii, ATCC17961, 90% growth inhibitory concentration, Acinetobacter baumannii ATCC17961, Iso-Sensitest broth; read-out: ATCC 17961 IC90.
Consider `Cn1c(-c2ccc(OC(F)F)c(F)c2F)cnc1C(=O)Nc1ccc(C(=O)N2CCN(C(=O)C3CCN(CC(N)=O)CC3)CC2)c(Cl)c1` [Example 289], for which the IC90 was 70 nM. Take `Cn1c(-c2ccc(OC(F)F)c(F)c2F)cnc1C(=O)Nc1ccc(C(=O)N2CCN(C(=O)C3CCN(CCN)CC3)CC2)c(Cl)c1` [Example 292, N-[4-[4-[1-(2-aminoethyl)piperidine-4-carbonyl]piperazine-1-carbonyl]-3-chloro-phenyl]-5-[4-(difluoromethoxy)-2,3-difluoro-phenyl]-1-methyl-imidazole-2-carboxamide trifluoroacetate]: the IC90 came out at 40 nM. Still for that read-out and setting: the result for `COc1ccc(-c2cnc(C(=O)Nc3ccc(C(=O)N4CCN(C(=O)CN5CCC(O)C5)CC4)c(Cl)c3)n2C)c(F)c1F` (centres unmarked) [Example 294, N-[3-chloro-4-[4-[2-(3-hydroxypyrrolidin-1-yl)acetyl]piperazine-1-carbonyl]phenyl]-5-(2,3-difluoro-4-methoxy-phenyl)-1-methyl-imidazole-2-carboxamide formate] reads 40 nM; that for `COc1ccc(-c2cnc(C(=O)Nc3ccc(C(=O)N4CCN(C(=O)CN5CC(O)C5)CC4)c(Cl)c3)n2C)c(F)c1F` [Example 295, N-[3-chloro-4-[4-[2-(3-hydroxyazetidin-1-yl)acetyl]piperazine-1-carbonyl]phenyl]-5-(2,3-difluoro-4-methoxy-phenyl)-1-methyl-imidazole-2-carboxamide formate], 110 nM.

Staying with this assay, now noted: Acinetobacter baumannii, ATCC17961, read-out: ATCC 17961 IC90.
For `COc1ccc(-c2cnc(C(=O)Nc3ccc(C(=O)N4CCN(C(=O)C5CCN(CC(=O)O)CC5)CC4)c(Cl)c3)n2C)c(F)c1F` [Example 288, 2-[4-[4-[2-Chloro-4-[[5-(2,3-difluoro-4-methoxy-phenyl)-1-methyl-imidazole-2-carbonyl]amino]benzoyl]piperazine-1-carbonyl]-1-piperidyl]acetic acid trifluoroacetate], the IC90 was 470 nM. Regarding `COc1ccc(-c2cnc(C(=O)Nc3ccc(C(=O)N4CCN(C(=O)C5CCN(CCN)CC5)CC4)c(Cl)c3)n2C)c(F)c1F` [Example 290, N-[4-[4-[1-(2-Aminoethyl)piperidine-4-carbonyl]piperazine-1-carbonyl]-3-chloro-phenyl]-5-(2,3-difluoro-4-methoxy-phenyl)-1-methyl-imidazole-2-carboxamide formate], the IC90 was determined as 50 nM.

With `COc1ccc(-c2cnc(C(=O)Nc3ccc(C(=O)N4CCN(CC5CCNC5)CC4)c(Cl)c3)n2C)c(F)c1F` (centres unmarked) [Example 291, N-[3-chloro-4-[4-(pyrrolidin-3-ylmethyl)piperazine-1-carbonyl]phenyl]-5-(2,3-difluoro-4-methoxy-phenyl)-1-methyl-imidazole-2-carboxamide formate], the IC90 was 50 nM.

As to `COc1ccc(-c2cnc(C(=O)Nc3ccc(C(=O)N4CCN(C(=O)CN5CCCC5)CC4)c(Cl)c3)n2C)c(F)c1F` [Example 293, N-[3-Chloro-4-[4-(2-pyrrolidin-1-ylacetyl)piperazine-1-carbonyl]phenyl]-5-(2,3-difluoro-4-methoxy-phenyl)-1-methyl-imidazole-2-carboxamide formate], the IC90 was 30 nM. Still for that read-out and setting: the result for `COc1ccc(-c2cnc(C(=O)Nc3ccc(C(=O)N4CCN(C(=O)CCOCCNC(=O)CN(C)C)CC4)c(Cl)c3)n2C)c(F)c1F` [Example 299, N-[3-Chloro-4-[4-[3-[2-[[2-(dimethylamino)acetyl]amino]ethoxy]propanoyl]piperazine-1-carbonyl]phenyl]-5-(2,3-difluoro-4-methoxy-phenyl)-1-methyl-imidazole-2-carboxamide] reads 150 nM.

The test system of another assay is Acinetobacter baumannii ATCC17978. The description is as above. The class given is cell-based. The settings on record: 90% growth inhibitory concentration, Acinetobacter baumannii ATCC17978, Iso-Sensitest broth; read-out: ATCC 17978 IC90. The procedure, abridged: as §1
`COc1ccc(-c2cnc(C(=O)Nc3ccc(C(=O)N4CCC(CN)CC4)c(Cl)c3)n2C)c(F)c1F` [Example 16, N-[4-[4-(aminomethyl)piperidine-1-carbonyl]-3-chloro-phenyl]-5-(2,3-difluoro-4-methoxy-phenyl)-1-methyl-imidazole-2-carboxamide trifluoroacetate]: the IC90 came to 300 nM. Regarding `CCc1cc(NC(=O)c2ncc(-c3ccc(OC)c(F)c3F)n2C)ccc1C(=O)N1CCC(Cc2nc(C3CCC3)no2)CC1` [Example 27, N-[4-[4-[(3-cyclobutyl-1,2,4-oxadiazol-5-yl)methyl]piperidine-1-carbonyl]-3-ethyl-phenyl]-5-(2,3-difluoro-4-methoxy-phenyl)-1-methyl-imidazole-2-carboxamide], the IC90 stood at 5700 nM. Consider `Cn1c(-c2ccc(OCC#N)c(F)c2F)cnc1C(=O)Nc1ccc(C(=O)N2CCC(C(=O)N3CCOC(CN)C3)CC2)c(Cl)c1` (centres unmarked) [Example 73, N-(4-(4-(2-(aminomethyl)morpholine-4-carbonyl)piperidine-1-carbonyl)-3-chlorophenyl)-5-(4-(cyanomethoxy)-2,3-difluorophenyl)-1-methyl-1H-imidazole-2-carboxamide 2,2,2-trifluoroacetate], for which the IC90 worked out at 60 nM.

As for `Cn1c(-c2ccc(OCC#N)c(F)c2F)cnc1C(=O)Nc1ccc(C(=O)N2CCC(C(=O)N3CCOCC3)CC2)c(Cl)c1` [Example 74, N-(3-chloro-4-(4-(morpholine-4-carbonyl)piperidine-1-carbonyl)phenyl)-5-(4-(cyanomethoxy)-2,3-difluorophenyl)-1-methyl-1H-imidazole-2-carboxamide], the IC90 turned out to be 100 nM. Regarding `Cn1c(-c2ccc(OCC#N)c(F)c2F)cnc1C(=O)Nc1ccc(C(=O)N2CCC(C(=O)N3CCS(=O)(=O)CC3)CC2)c(Cl)c1` [Example 75, N-(3-chloro-4-(4-(1,1-dioxidothiomorpholine-4-carbonyl)piperidine-1-carbonyl)phenyl)-5-(4-(cyanomethoxy)-2,3-difluorophenyl)-1-methyl-1H-imidazole-2-carboxamide], the IC90 was 100 nM.

`Cn1c(-c2ccc(OCC#N)c(F)c2F)cnc1C(=O)Nc1ccc(C(=O)N2CCC(C(=O)N3CCSCC3)CC2)c(Cl)c1` [Example 76, N-(3-chloro-4-(4-(thiomorpholine-4-carbonyl)piperidine-1-carbonyl)phenyl)-5-(4-(cyanomethoxy)-2,3-difluorophenyl)-1-methyl-1H-imidazole-2-carboxamide]: the IC90 was 210 nM. For `Cc1cc(NC(=O)c2ncc(-c3ccc(OCC#N)c(F)c3F)n2C)ccc1C(=O)N1CCC(C(=O)N2CCS(=O)(=O)CC2)CC1` [Example 77, 5-(4-(cyanomethoxy)-2,3-difluorophenyl)-N-(4-(4-(1,1-dioxidothiomorpholine-4-carbonyl)piperidine-1-carbonyl)-3-methylphenyl)-1-methyl-1H-imidazole-2-carboxamide], the IC90 is 170 nM. Still for that read-out and setting: then `Cc1cc(NC(=O)c2ncc(-c3ccc(OCC#N)c(F)c3F)n2C)ccc1C(=O)N1CCC(C(=O)N2CCOCC2)CC1` [Example 78, 5-(4-(cyanomethoxy)-2,3-difluorophenyl)-1-methyl-N-(3-methyl-4-(4-(morpholine-4-carbonyl)piperidine-1-carbonyl)phenyl)-1H-imidazole-2-carboxamide], with 120 nM; and `Cn1c(-c2ccc(OCC#N)c(F)c2F)cnc1C(=O)Nc1ccc(C(=O)N2CCC(C(=O)N3CC[C@@H](N)C3)CC2)c(Cl)c1` [Example 80, (R)-N-(4-(4-(3-aminopyrrolidine-1-carbonyl)piperidine-1-carbonyl)-3-chlorophenyl)-5-(4-(cyanomethoxy)-2,3-difluorophenyl)-1-methyl-1H-imidazole-2-carboxamide formate], with 70 nM; and `Cn1c(-c2ccc(OCC#N)c(F)c2F)cnc1C(=O)Nc1ccc(C(=O)N2CCC(C(=O)N3CCN[C@@H](CO)C3)CC2)c(Cl)c1` [Example 81, (R)-N-(3-chloro-4-(4-(3-(hydroxymethyl)piperazine-1-carbonyl)piperidine-1-carbonyl)phenyl)-5-(4-(cyanomethoxy)-2,3-difluorophenyl)-1-methyl-1H-imidazole-2-carboxamide 2,2,2-trifluoroacetate], with 70 nM. In the case of `COc1ccc(-c2cnc(C(=O)Nc3ccc(C(=O)N4CCN(C(=O)CN(C)C)CC4)c(Cl)c3)n2C)c(F)c1F` [Example 104, N-[3-chloro-4-[4-[2-(dimethylamino)acetyl]piperazine-1-carbonyl]phenyl]-5-(2,3-difluoro-4-methoxy-phenyl)-1-methyl-imidazole-2-carboxamide trifluoroacetate], the IC90 turned out to be 70 nM.

With `CNCC(=O)N1CCN(C(=O)c2ccc(NC(=O)c3ncc(-c4ccc(OC)c(F)c4F)n3C)cc2Cl)CC1` [Example 105, N-[3-chloro-4-[4-[2-(methylamino)acetyl]piperazine-1-carbonyl]phenyl]-5-(2,3-difluoro-4-methoxy-phenyl)-1-methyl-imidazole-2-carboxamide trifluoroacetate], the IC90 was 70 nM.

The assay is the same for the next values; noted with them: Acinetobacter baumannii, ATCC17978, read-out: ATCC 17978 IC90.
On to `Cc1cc(NC(=O)c2ncc(-c3ccc(OCC#N)c(F)c3F)n2C)ccc1C(=O)N1CCC(C(=O)N2CC(N)C2)CC1` [Example 79, N-(4-(4-(3-aminoazetidine-1-carbonyl)piperidine-l-carbonyl)-3-methylphenyl)-5-(4-(cyanomethoxy)-2,3-difluorophenyl)-1-methyl-1H-imidazole-2-carboxamide 2,2,2-trifluoroacetate], for which the IC90 was found to be 210 nM.

Usually IC90 stands for the point of the concentration-response curve where the effect stands at 90%.
